This test has as its system MHC class II proteins on B cells (DRB1*0701 DQA1*0201 DQB1*0202). In words: Peptide binding assay: competition of biotinylated EBV280-290 binding to B cells, flow cytometry. The note with it: FIG. 29. As for the experimental part: Peptide binding to MHC class II proteins on the surface of Epstein-Barr virus-transformed B lymphocytes was tested by quantitative flow cytometric analysis (Busch et al. 1990), with modifications. Low resolution HLA typed B cell lines (DR2 and DR7) were obtained from the Coriell Institute for Medical Research (Camden, N.J.). Those cell lines were HLA typed at high resolution for DRB1, DQA1 and DQB1. The B cell lines GM03107, GM08605, and Jesthom were selected for binding studies. The following MHC allele and reference peptide combinations were used: DRB1*0101 and influenzae peptide HA307-319, […] (SEQ ID NO:48) (Busch, R. 1991); DRB1*0701 and Epstein-Barr virus peptide EBV280-290, […] (SEQ ID NO:49) (Omiya et al., 2002); DRB1*1501 and myelin basic protein MBP84-100, […] (SEQ ID NO:50) (Fridkis-Hareli et al., 2001). A biotin molecule followed by a caproic acid-caproic acid spacer was added to the N-terminus of the reference peptides. The binding of biotinylated peptides to the MHC molecules was tested at various pH values. The pH 5.5 was used to test competition with IFN-β peptides. Detection of peptide binding was done with streptavidin-AlexaFluor546 (Molecular Probes, Eugene, O.R.) in a PCA-96 flow cell counter (Guava Technologies Inc., Hayward, Calif.). […]

The text below walks through data of patent publication US20060148009A1, “Prediction and assessment of immunogenicity” (Xencor, Inc., priority 2004, published 2006).

Take HYLKAKEYSHCAWTIVR: the “competition of EBV280-290 peptide binding to B cells” value was “dose-dependent competition”.
